Source: ChEMBL document CHEMBL3745631, “Discovery of highly potent and selective Bruton's tyrosine kinase inhibitors: Pyridazinone analogs with improved metabolic stability” (Bioorg Med Chem Lett, 2016)

Tests used:
[1] = biological target: Tyrosine-protein kinase BTK (Mus musculus, UniProt P35991); assay: Inhibition of BTK in Balb/c mouse B cells assessed as inhibition of anti-IgM-stimulated CD86 expression by flow cytometry; type: cell-based
[2] = tested on: Monocyte; assay: Inhibition of IC-induced TNF-alpha release in human monocytes
[3] = biological target: Tyrosine-protein kinase Fgr (Homo sapiens, UniProt P09769); assay: Inhibition of FGR (unknown origin) at 1 uM
[4] = biological target: Tyrosine-protein kinase Yes (Homo sapiens) (UniProt P07947); assay: Inhibition of Yes (unknown origin) at 1 uM
[5] = biological target: Casein kinase I isoform gamma-1 (Homo sapiens) (UniProt Q9HCP0); assay: Inhibition of CK1 gamma1 (unknown origin) at 1 uM
[6] = biological target: Serine/threonine-protein kinase WNK2 (Homo sapiens) (UniProt Q9Y3S1); assay: Inhibition of WNK2 (unknown origin) at 1 uM
[7] = biological target: Serine/threonine-protein kinase Nek9 (Homo sapiens) (UniProt Q8TD19); assay: Inhibition of NEK9 (unknown origin) at 1 uM
[8] = biological target: Protein kinase C delta type (Homo sapiens) (UniProt Q05655); assay: Inhibition of PKCdelta (unknown origin) at 1 uM
[9] = tested on: Salmonella typhimurium; assay: Genotoxicity in Salmonella typhimurium TA98 by Ames test in presence of S9 fraction; type: toxicity, organism-based; conditions: salmonella enterica subsp. enterica serovar typhimurium
[10] = biological target: Mitogen-activated protein kinase 9 (Homo sapiens) (UniProt P45984); assay: Inhibition of JNK2 (unknown origin) at 1 uM
[11] = biological target: Myosin light chain kinase (Homo sapiens) (UniProt Q32MK0); assay: Inhibition of MYLK3 (unknown origin) at 1 uM
[12] = biological target: Tyrosine-protein kinase Mer (Homo sapiens) (UniProt Q12866); assay: Inhibition of Mer (unknown origin) at 1 uM
[13] = biological target: Receptor tyrosine-protein kinase erbB-4 (Homo sapiens) (UniProt Q15303); assay: Inhibition of ErbB4 (unknown origin) at 1 uM
[14] = biological target: MAP kinase-activated protein kinase 5 (Homo sapiens) (UniProt Q8IW41); assay: Inhibition of PRAK (unknown origin) at 1 uM
[15] = biological target: Casein kinase II subunit alpha (Homo sapiens) (UniProt P68400); assay: Inhibition of CK2 alpha1 (unknown origin) at 1 uM
[16] = biological target: Platelet-derived growth factor receptor alpha (Homo sapiens) (UniProt P16234); assay: Inhibition of PDGFR alpha (unknown origin) at 1 uM
[17] = biological target: Protein kinase C beta type (Homo sapiens) (UniProt P05771); assay: Inhibition of PKC beta1 (unknown origin) at 1 uM
[18] = biological target: Death-associated protein kinase 1 (Homo sapiens) (UniProt P53355); assay: Inhibition of DAPK1 (unknown origin) at 1 uM
[19] = biological target: Testis-specific serine/threonine-protein kinase 1 (Homo sapiens) (UniProt Q9BXA7); assay: Inhibition of TSSK1 (unknown origin) at 1 uM
[20] = biological target: MAP kinase-interacting serine/threonine-protein kinase 2 (Homo sapiens) (UniProt Q9HBH9); assay: Inhibition of MKNK2 (unknown origin) at 1 uM
[21] = biological target: RAC-beta serine/threonine-protein kinase (Homo sapiens) (UniProt P31751); assay: Inhibition of AKT2 (unknown origin) at 1 uM
[22] = biological target: Ribosomal protein S6 kinase alpha-1 (Homo sapiens) (UniProt Q15418); assay: Inhibition of Rsk1 (unknown origin) at 1 uM
[23] = biological target: Activin receptor type-1 (Homo sapiens) (UniProt Q04771); assay: Inhibition of ALK2 (unknown origin) at 1 uM
[24] = biological target: 5'-AMP-activated protein kinase catalytic subunit alpha-1 (Homo sapiens) (UniProt Q13131); assay: Inhibition of PRKAA1 (unknown origin) at 1 uM
[25] = biological target: Tyrosine-protein kinase Srms (Homo sapiens) (UniProt Q9H3Y6); assay: Inhibition of Srm (unknown origin) at 1 uM
[26] = biological target: Serine/threonine-protein kinase PLK3 (Homo sapiens) (UniProt Q9H4B4); assay: Inhibition of PLK3 (unknown origin) at 1 uM
[27] = biological target: Receptor-type tyrosine-protein kinase FLT3 (Homo sapiens) (UniProt P36888); assay: Inhibition of Flt3 (unknown origin) at 1 uM
[28] = biological target: Tyrosine-protein kinase Blk (Homo sapiens) (UniProt P51451); assay: Inhibition of Blk (unknown origin) at 1 uM
[29] = biological target: Serine/threonine-protein kinase 33 (Homo sapiens) (UniProt Q9BYT3); assay: Inhibition of STK33 (unknown origin) at 1 uM
[30] = biological target: Homeodomain-interacting protein kinase 4 (Homo sapiens) (UniProt Q8NE63); assay: Inhibition of HIPK4 (unknown origin) at 1 uM
[31] = biological target: Serine/threonine-protein kinase TBK1 (Homo sapiens) (UniProt Q9UHD2); assay: Inhibition of TBK1 (unknown origin) at 1 uM
[32] = biological target: Cyclin-dependent kinase 1/cyclin B1 (Homo sapiens) (UniProt P06493+P14635); assay: Inhibition of CDK1/cyclinB (unknown origin) at 1 uM; type: protein-complex assay
[33] = biological target: Tyrosine-protein kinase Fes/Fps (Homo sapiens) (UniProt P07332); assay: Inhibition of Fes (unknown origin) at 1 uM
[34] = biological target: Serine/threonine-protein kinase Sgk1 (Homo sapiens) (UniProt O00141); assay: Inhibition of SGK1 (unknown origin) at 1 uM
[35] = biological target: Casein kinase I isoform alpha (Homo sapiens) (UniProt P48729); assay: Inhibition of CK1 alpha1 (unknown origin) at 1 uM
[36] = biological target: Protein-tyrosine kinase 2-beta (Homo sapiens) (UniProt Q14289); assay: Inhibition of FAK2 (unknown origin) at 1 uM
[37] = biological target: G protein-coupled receptor kinase 5 (Homo sapiens) (UniProt P34947); assay: Inhibition of GRK5 (unknown origin) at 1 uM
[38] = biological target: Serine/threonine-protein kinase Sgk2 (Homo sapiens) (UniProt Q9HBY8); assay: Inhibition of SGK2 (unknown origin) at 1 uM
[39] = biological target: Serine/threonine-protein kinase SIK2 (Homo sapiens) (UniProt Q9H0K1); assay: Inhibition of SIK2 (unknown origin) at 1 uM
[40] = biological target: Serine/threonine-protein kinase MRCK alpha (Homo sapiens) (UniProt Q5VT25); assay: Inhibition of MRCK alpha (unknown origin) at 1 uM
[41] = biological target: Rho-associated protein kinase 1 (Homo sapiens) (UniProt Q13464); assay: Inhibition of ROCK1 (unknown origin) at 1 uM
[42] = biological target: Focal adhesion kinase 1 (Homo sapiens) (UniProt Q05397); assay: Inhibition of FAK (unknown origin) at 1 uM
[43] = biological target: Protein-tyrosine kinase 6 (Homo sapiens) (UniProt Q13882); assay: Inhibition of Brk (unknown origin) at 1 uM
[44] = biological target: STE20-like serine/threonine-protein kinase (SLK) (Homo sapiens) (UniProt Q9H2G2); assay: Inhibition of SLK (unknown origin) at 1 uM

Serine/threonine-protein kinase SIK2 (Homo sapiens), sequence (Q9H0K1 whole entry, looked up): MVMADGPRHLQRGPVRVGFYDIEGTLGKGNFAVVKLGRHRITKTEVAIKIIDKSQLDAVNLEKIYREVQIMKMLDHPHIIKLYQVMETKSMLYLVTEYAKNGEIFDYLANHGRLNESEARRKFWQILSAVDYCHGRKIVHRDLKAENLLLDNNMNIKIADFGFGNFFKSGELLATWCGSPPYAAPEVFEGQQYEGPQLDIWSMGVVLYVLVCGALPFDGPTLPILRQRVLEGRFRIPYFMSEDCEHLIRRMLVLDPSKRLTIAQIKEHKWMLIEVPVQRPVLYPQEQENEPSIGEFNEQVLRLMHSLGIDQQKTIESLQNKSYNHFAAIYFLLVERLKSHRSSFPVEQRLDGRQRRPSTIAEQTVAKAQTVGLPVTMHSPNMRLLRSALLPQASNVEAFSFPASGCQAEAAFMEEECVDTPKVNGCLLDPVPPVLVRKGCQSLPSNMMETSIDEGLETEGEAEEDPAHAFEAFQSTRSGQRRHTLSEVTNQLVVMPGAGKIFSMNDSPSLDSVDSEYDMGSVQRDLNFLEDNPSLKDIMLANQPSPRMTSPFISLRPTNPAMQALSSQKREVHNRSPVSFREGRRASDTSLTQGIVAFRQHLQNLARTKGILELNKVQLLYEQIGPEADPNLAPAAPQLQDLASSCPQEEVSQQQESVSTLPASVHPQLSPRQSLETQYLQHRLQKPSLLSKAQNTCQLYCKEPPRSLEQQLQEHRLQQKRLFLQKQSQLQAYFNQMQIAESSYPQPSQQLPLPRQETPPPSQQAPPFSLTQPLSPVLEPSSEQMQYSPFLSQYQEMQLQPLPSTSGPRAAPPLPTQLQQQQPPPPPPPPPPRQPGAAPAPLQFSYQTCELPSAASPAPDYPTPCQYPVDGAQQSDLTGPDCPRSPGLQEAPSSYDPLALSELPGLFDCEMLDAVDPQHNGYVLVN
Platelet-derived growth factor receptor alpha (Homo sapiens), sequence (P16234 whole entry): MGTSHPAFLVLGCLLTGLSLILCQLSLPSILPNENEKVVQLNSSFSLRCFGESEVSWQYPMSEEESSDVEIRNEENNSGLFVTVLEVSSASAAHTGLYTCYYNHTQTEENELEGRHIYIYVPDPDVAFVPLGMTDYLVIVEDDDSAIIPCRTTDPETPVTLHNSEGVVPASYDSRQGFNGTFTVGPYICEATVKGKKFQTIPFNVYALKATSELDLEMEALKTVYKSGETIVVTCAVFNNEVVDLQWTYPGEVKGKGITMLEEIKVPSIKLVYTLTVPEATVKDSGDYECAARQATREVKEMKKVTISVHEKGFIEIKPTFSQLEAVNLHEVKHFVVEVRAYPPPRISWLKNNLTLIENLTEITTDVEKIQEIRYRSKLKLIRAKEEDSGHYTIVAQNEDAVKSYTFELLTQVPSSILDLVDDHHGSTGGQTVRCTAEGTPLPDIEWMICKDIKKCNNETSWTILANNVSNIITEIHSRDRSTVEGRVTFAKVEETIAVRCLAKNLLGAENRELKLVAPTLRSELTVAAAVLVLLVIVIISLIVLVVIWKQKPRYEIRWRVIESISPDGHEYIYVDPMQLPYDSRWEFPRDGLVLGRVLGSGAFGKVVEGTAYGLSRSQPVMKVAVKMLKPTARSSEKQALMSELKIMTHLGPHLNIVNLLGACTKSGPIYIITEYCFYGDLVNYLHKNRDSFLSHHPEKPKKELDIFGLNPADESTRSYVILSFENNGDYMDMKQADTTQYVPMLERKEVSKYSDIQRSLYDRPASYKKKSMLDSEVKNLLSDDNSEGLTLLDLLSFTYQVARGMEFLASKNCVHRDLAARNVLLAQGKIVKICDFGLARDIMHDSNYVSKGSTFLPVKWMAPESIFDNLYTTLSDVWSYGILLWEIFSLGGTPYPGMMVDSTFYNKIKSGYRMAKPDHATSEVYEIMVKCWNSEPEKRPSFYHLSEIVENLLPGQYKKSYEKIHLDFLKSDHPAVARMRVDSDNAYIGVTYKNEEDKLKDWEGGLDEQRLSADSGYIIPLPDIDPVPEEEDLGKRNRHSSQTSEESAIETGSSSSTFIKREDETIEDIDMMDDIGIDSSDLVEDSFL
Myosin light chain kinase (Homo sapiens), sequence (Q32MK0 whole entry): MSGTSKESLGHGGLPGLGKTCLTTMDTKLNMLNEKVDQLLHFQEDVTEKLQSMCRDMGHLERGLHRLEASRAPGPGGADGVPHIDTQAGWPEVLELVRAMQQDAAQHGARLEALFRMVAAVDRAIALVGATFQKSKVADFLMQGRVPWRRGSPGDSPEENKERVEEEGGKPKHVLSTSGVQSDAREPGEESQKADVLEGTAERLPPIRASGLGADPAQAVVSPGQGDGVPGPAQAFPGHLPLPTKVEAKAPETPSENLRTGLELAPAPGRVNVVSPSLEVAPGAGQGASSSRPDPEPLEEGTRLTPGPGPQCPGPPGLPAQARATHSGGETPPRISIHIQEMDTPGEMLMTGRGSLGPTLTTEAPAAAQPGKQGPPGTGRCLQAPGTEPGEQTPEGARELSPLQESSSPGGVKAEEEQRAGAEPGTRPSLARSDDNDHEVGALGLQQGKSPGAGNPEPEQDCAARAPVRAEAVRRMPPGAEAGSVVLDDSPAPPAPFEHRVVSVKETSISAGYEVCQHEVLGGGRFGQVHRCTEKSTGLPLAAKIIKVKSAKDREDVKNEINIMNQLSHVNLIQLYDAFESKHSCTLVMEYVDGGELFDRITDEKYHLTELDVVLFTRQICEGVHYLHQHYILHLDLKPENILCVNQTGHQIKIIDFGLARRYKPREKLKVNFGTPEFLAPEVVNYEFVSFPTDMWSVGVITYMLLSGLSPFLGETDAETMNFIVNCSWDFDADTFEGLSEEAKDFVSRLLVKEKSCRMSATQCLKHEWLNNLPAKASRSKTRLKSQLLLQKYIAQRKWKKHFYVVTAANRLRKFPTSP
Cyclin-dependent kinase 1/cyclin B1 (Homo sapiens), sequence (P06493 whole entry, looked up): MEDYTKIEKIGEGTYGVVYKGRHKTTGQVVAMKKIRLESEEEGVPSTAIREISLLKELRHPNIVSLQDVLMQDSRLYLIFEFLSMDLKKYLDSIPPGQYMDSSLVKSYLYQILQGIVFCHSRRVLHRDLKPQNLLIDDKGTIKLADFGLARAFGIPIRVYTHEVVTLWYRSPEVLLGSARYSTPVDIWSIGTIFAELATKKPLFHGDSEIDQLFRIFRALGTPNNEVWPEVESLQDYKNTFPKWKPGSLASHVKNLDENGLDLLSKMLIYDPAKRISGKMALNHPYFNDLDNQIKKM
Cyclin-dependent kinase 1/cyclin B1 (Homo sapiens), sequence (P14635 whole entry, looked up): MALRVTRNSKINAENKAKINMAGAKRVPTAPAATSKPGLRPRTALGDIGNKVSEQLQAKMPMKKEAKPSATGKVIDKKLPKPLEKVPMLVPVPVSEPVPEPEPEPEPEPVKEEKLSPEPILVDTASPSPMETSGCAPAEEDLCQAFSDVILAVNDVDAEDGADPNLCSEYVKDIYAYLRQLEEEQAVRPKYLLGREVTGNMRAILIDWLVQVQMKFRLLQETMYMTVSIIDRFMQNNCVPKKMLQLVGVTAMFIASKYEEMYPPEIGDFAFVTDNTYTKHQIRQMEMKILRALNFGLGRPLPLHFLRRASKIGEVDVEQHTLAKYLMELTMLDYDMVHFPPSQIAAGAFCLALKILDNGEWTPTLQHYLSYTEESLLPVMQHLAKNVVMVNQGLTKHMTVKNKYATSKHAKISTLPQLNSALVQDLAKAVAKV
Receptor-type tyrosine-protein kinase FLT3 (Homo sapiens), sequence (P36888 whole entry): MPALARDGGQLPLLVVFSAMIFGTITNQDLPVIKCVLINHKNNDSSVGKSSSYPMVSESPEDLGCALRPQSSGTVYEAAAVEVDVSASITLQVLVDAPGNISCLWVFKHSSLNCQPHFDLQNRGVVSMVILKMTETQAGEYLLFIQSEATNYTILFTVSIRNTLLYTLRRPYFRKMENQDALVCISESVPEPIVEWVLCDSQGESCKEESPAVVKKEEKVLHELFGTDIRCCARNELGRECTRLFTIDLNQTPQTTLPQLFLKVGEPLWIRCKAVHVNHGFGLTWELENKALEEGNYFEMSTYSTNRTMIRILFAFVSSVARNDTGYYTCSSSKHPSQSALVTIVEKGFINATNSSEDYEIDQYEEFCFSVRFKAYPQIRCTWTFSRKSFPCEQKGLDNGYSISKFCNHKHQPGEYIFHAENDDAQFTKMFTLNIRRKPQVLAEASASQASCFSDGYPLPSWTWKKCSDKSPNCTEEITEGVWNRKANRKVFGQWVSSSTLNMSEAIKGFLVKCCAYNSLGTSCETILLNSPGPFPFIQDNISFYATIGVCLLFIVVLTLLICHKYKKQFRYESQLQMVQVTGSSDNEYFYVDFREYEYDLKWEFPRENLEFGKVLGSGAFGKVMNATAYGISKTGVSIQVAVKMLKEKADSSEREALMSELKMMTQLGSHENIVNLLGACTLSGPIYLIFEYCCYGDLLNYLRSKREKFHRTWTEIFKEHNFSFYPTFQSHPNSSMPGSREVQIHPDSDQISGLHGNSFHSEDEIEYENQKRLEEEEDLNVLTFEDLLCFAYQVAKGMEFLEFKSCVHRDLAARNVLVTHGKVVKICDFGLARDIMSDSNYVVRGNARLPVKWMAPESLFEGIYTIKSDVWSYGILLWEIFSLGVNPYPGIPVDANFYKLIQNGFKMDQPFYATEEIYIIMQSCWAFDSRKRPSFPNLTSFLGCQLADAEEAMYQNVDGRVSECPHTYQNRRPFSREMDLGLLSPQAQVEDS
Tyrosine-protein kinase Blk (Homo sapiens), sequence (P51451 2-505 limits assumed): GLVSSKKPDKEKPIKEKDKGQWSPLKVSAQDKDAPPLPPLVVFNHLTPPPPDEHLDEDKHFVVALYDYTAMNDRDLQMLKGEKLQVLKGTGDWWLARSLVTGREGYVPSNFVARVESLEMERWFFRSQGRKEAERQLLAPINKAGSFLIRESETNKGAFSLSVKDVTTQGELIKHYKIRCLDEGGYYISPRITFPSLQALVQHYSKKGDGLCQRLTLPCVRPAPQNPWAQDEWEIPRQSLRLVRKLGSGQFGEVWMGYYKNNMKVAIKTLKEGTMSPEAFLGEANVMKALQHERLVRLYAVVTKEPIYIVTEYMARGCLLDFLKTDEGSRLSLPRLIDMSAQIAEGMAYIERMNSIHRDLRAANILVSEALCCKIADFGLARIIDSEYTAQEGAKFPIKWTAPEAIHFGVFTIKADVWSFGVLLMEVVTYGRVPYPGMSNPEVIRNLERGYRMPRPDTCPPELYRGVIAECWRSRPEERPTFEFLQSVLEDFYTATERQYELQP

IC50 [1]: 91 nM
EC50 [2]: 37 nM
inhibition [3]: 69.8%
inhibition [4]: 20.8%
inhibition [5]: 6.2%
inhibition [6]: -7.5%
inhibition [8]: -8%
inhibition [10]: 1.8%
inhibition [11]: 3%
inhibition [12]: 3%
inhibition [13]: 2.7%
inhibition [14]: 2%
inhibition [15]: 0.8%
inhibition [16]: 0.2%
inhibition [17]: 0.2%
inhibition [19]: 0%
inhibition [20]: -0.2%
inhibition [21]: -0.3%
inhibition [22]: -0.4%
inhibition [23]: -2.1%
inhibition [24]: -2.2%
inhibition [25]: 15.7%
inhibition [26]: 14.1%
inhibition [27]: 11.6%
inhibition [28]: 10.6%
inhibition [29]: 8.3%
inhibition [30]: 7.8%
inhibition [31]: 7.5%
inhibition [32]: 7.3%
inhibition [33]: 7.2%
inhibition [34]: 4.6%
inhibition [35]: 4%
inhibition [36]: 4%
inhibition [37]: 3.8%
inhibition [38]: -2.3%
inhibition [39]: -3.9%
inhibition [40]: -4.5%
inhibition [41]: -4.8%
inhibition [42]: 3.6%
inhibition [43]: 3.5%
inhibition [44]: -3%
Structure (SMILES): Cc1c(-c2cc(Nc3cc4n(n3)CCN(C)C4)c(=O)[nH]n2)ccc(F)c1NC(=O)c1cc2ccccc2s1
inhibition [7]: -7.6%
Activity [9]: Non-toxic
inhibition [18]: 0.1%
